Patent US8828997B2, “2,3-dihydro-1H-imidazo(1,2-a)pyrimidin-5-one derivatives, preparation thereof, and pharmaceutical use thereof” (Sanofi, priority 2009, dated 2014)

How the values were obtained:
[1] = system: P. falciparum (highly chloroquine-resistant strain Fcm29-Cameroon); assay: Antimalarial activity test (radioactive micromethod of Desjardins, tritiated hypoxanthine incorporation); type: cell-based; settings: Plasmodium falciparum, Erythrocyte, infected human erythrocytes, 48 h
Summary of the method: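 P. falciparum cultured in infected human erythrocytes (2% haematocrit, 1.5% parasitaemia) in RPMI 1640 with 5% human serum and 1% DMSO, exposed to compound for 48 h at 37 °C, 5% CO2. Tritiated hypoxanthine added at 24 h; growth inhibition versus drug-free incorporation, reported as % at 1 μM and 0.1 μM.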

[2] = system: AKT protein phosphorylated on serine 473 (pAKT-S473) in PC3 human prostate carcinoma cells; assay: pAKT expression in PC3 human prostate carcinoma cells measured by western blotting (test A); type: cell-based; settings: PC-3, 1 to 2 h incubation, absolute IC50
Procedure: The inhibitory activity of the molecules on AKT phosphorylation is measured either by western blotting using the technique described below, or by the MSD Multi-spot Biomarker detection technique from Meso Scale Discovery also described below.
Study of pAKT Expression in PC3 Human Prostate Carcinoma Cells Measured by Western Blotting (test A):
This test is based on measuring the expression of the AKT protein phosphorylated on serine 473. The phosphorylation of AKT (pAKT) is measured by western blotting in the PC3 human prostate carcinoma line (ATCC CRL-1435), using an antibody that specifically recognises pAKT-S473.
On day 1, the PC3 cells are seeded into 6-well plates (TPP, #92006) at the concentration of 0.8×10^6 cells/well in 1800 μl of DMEM medium (DMEM Gibco #11960-044) containing 10% of foetal calf serum (SVF Gibco, #10500-056) and 1% glutamine (L-Glu Gibco #25030-024), and incubated at 37° C., 5% CO2, overnight.
On day 2, the cells are incubated in the presence or absence of the test products for 1 to 2 hours at 37° C. in the presence of 5% CO2. The molecules, diluted in dimethyl sulphoxide (DMSO Sigma #D2650), are added from a 10-times concentrated stock solution, the final percentage of DMSO being 0.1%. The molecules are tested either at a single concentration of less than or equal to 10 μM, or at increasing concentrations in a range that can extend from less than 1 nM to 10 μM.
After this incubation, the cells are lysed for the preparation of the proteins. After the culture medium has been drawn off, the cells are rinsed with 1 ml of PBS (DPBS Gibco, #14190-094), recovered by scraping in 200 μl of complete HNTG buffer and transferred into a 96-well plate (Greiner #651201), and lysed for 1 h on ice. The HNTG buffer is composed of the following mixture: 50 mM hepes, 150 mM NaCl, 1% triton, 10% glycerol, with extemporaneous addition of one Mini Protease Inhibitor Cocktail tablet (Roche 1836153) and of one Phosphatase Inhibitor Cocktail tablet (Roche104906837001) per 10 ml of buffer.
The lysate is centrifuged for 10 min at 6000 rpm. 155 μl of supernatant are recovered. 150 μl are incubated for denaturation for 5 min at 95° C. in the presence of 4× NuPAGE LDS Sample Buffer diluted 4-fold (InVitrogen ref NP0007) and of 10× NuPAGE Sample Reducing Agent diluted 10-fold (InVitrogen ref NP0009). These samples are then frozen at −20° C. 5 μl are assayed by the microBCA technique according to the technical bulletin of the MicroBCA Protein Assay Kit (Pierce #23235).
For protein separation, 20 μg of proteins are loaded on to a NU-PAGE 4-12% Bis Tris Gel 12 well (InVitrogen ref NP0322BOX) and the migration is carried out for 1 h 30 in 20× NU-PAGE MOPS SDS Running Buffer diluted 20-fold (InVitrogen ref NP0001), at 150 volts.
The gel is then transferred on to an Invitrolon PVDF membrane (Invitrogen #LC2007) permeabilised before and after a few seconds in ethanol (Ethanol Fischer Scientific #E/0600DF/15).
The transfer is carried out in a Biorad tank at 30 volts overnight or at 60 volts for 3 hours, in the presence of 20× NUPAGE Transfer Buffer diluted 20-fold (InVitrogen ref NP0006).
The membrane is then saturated in saturating solution composed of TBS (10× Tris Buffered Saline, Sigma #T5912, diluted 10-fold), 0.1% Tween 20 (Sigma #P5927) and 3% BSA (Bovine Albumin Serum Fraction V, Sigma #A4503) for 6 h after overnight transfer or else for 1 h after transfer for a period of 3 h.
The primary antibodies are diluted to 1/1000 for the anti-phospho AKT-Ser473 antibody (1931-12, rabbit monoclonal, cat#4058 from Cell Signaling Technology Abcam), in saturating solution composed of PBS, 0.1% Tween 20 and 3% BSA, and then shaken overnight at 4° C.
Two rinses for 5 min in washing solution composed of TBS and 0.1% Tween 20 are carried out before hybridisation of the secondary antibodies. […]

**Q.** What does the source list for `COc1ccc(CCN2c3nc(N4CCOCC4)cc(=O)n3C[C@@]2(C)C(F)(F)F)cc1` [Example 1, (S)-1-[2-(4-Methoxyphenyl)ethyl]-2-methyl-7-morpholin-4-yl-2-trifluoromethyl-2,3-dihydro-1H-imidazo[1,2-a]pyrimidin-5-one]?
**A.** inhibition at 0.1 µM ([1]; 0.1 μM): 67%; inhibition at 1 µM ([1]; 1 μM): 93%; IC50 [2]: 100 nM
